Source: patent publication US10201610B2, “Interference peptides and use thereof” (The University of Western Australia, priority 2014, dated 2019)
Ends that are not written are not given here.

System: SUM149PT cells
Experiment: Hoechst staining of apoptotic nuclei in SUM149PT cells
Type: cell-based, human
Conditions: 8 hours, compared with non-treated or iPep624ΔHEX-treated cells
Description: FIG. 3 Design of an EN1-specific interference peptide (EN1-iPep). (a) Molecular model of HOXA9 and PBX1 tertiary complex formation with the DNA (PDB: 1PUF). HOXA9 (hexapeptide “donor”) is shown in green; PBX (“partner”) in blue. The N-terminal peptide of HOXA9 (magenta) is essential to make contact with the DNA minor groove, as well as to stabilize the binding of HOXA9 with PBX1. The conserved tryptophan residue (W, arrow) is shown within the hexapeptide and it is responsible for anchoring the loop in PBX1. HD=Homeodomain. (b) A multiple alignment of the EN1-iPeps across species, with the consensus sequence of the iPep indicated below. […] Cells were treated for 8 hours and cell viability assessed by Cell Titer Glo assay (CTG). […] (e) Caspase 3 activity in SUM149PT cells measured after eight hours of iPep624 (SEQ ID NO: 5) or iPep624ΔHEX […]) treatment. […] Statistical significance was analyzed using the Student t-Test (*** p<0.001). […] Histogram represents the quantification of Hoechst positive cells per field of view at 40× magnification. […] Cell viability was assessed by Cell Titer Glo (CTG) assay and percentage of survival (%) was normalized to the control treated cells. […]
The EN1-iPeps and iPep controls were first tested in SUM149PT cells carrying high EN1 expression. […] Treated cells were first analyzed using the Cell Titer Glo assay, which monitors metabolic viability. […]

KKKRKVTDSQQPLVWPAWVYCTRYSDRPS [iPep624]
number of apoptotic nuclei: significantly higher
